The values below come from patent US6020374A, “Biologically active synthetic dye compounds” (priority 1998, dated 2000).

One data set concerns cells. The following applies: apoptosis induced by growth factor deprivation or by drugs such as cycloheximide (CX); cited from earlier work.
In another data set the test system is IRS-2. The data set can be described thus: IRS-2 tyrosine phosphorylation and association with p85 in FaO cells. The format is cell-based, rat. As to conditions: 5 mins., EB 200 μg/ml, insulin 600 ng/ml. As to the method:
(§1) FIG. 9 is the tyrosine phosphorylation of the IR cascade in Fao cells: A--Immunoblot analysis: Fao cells were deprived of serum for 20 hours, then incubated with EB, ATA, at 200 μg/ml or insulin at 600 ng/ml for 5 mins. Cell extracts were subjected to immunoprecipitation with antibodies to: IR β-subunit (αIR), IRS-1 (αIRS-1) and to IRS-2 (αIRS-2). The immunoprecipitates and total cell extracts were analyzed by SDS-PAGE. Proteins were transferred to nitrocellulose papers, and phosphotyrosine containing proteins were probed with anti-phosphotyrosine antibodies (αP-Tyr), antibody to the 85-kDa subunit of PI3-kinase (αp85) and antibodies to active MAPK (α active MAPK). The immunoblots were visualized by ECL (Amersham).
MCF-7 cells were grown in 35 or 100 mm dishes in DMEM with 5% bovine fetal serum. Rat hepato FaO cells were grown in RPMI 1640 medium supplemented with 10% fetal calf serum. Subconfluent monolayers of MCF-7 cells or FaO cells, were deprived of serum for 20 hours prior to each experiment. The medium was removed, and cells were incubated at 37° C. under the conditions as indicated for each experiment. […]
Nitrocellulose blots of proteins were incubated with the antibodies, and proteins were detected by enhanced chemiluminescence using horseradish peroxidase-labeled protein A, horseradish peroxidase-labeled anti rabbit IgG or horseradish peroxidase-labeled anti-mouse IgG. […]

Data set [1] relates to IR, IRS-1 and the 85-kDa regulatory subunit of PI3-kinase. The data set can be described thus: In vivo tyrosine phosphorylation of the IR cascade in rat liver. The following applies: Sprague-Dawley male rats, portal vein injection, EB 20 mg/rat, insulin 1 u/rat. As to the method: A--Immunoblot analysis. Rat liver extracts were subjected to immunoprecipitation and blotting with the indicated antibodies, as described in the legend to FIG. 9A.
EB (20 mg/rat) or insulin (1 u/rat) was injected into about 120 g weighing Sprague-Dawley male rats, via the portal vein. Control rats were injected with saline (SAL) alone. The rats were killed and the livers excised and frozen in liquid nitrogen at the indicated times.

In a further data set the test system is MAPKs 1 and 2. The data set can be described thus: Activation of MAPKs in FaO cells. It is filed as cell-based, rat. As to conditions: 5 mins., EB 200 μg/ml, insulin 600 ng/ml. On the procedure:
as §1
Nitrocellulose blots of proteins were incubated with the antibodies, and proteins were detected by enhanced chemiluminescence using horseradish peroxidase-labeled protein A, horseradish peroxidase-labeled anti rabbit IgG or horseradish peroxidase-labeled anti-mouse IgG.
In the rat hepatoma cell line FaO, EB and insulin, enhanced IRS-1 and IRS-2 tyrosine phosphorylation and their association with the 85-kDa regulatory subunit of the PI-kinase (FIG. 9A). PI3-kinase activity increases following its association with IRS-1 and IRS-2 (FIG. 9C). MAPKs 1 and 2 were activated by EB and insulin (FIG. 9A).

The conditions of data set [2]: high doses; cited from earlier work.

For `O=C(O)C1=CC(=C(c2ccc(O)c(C(=O)O)c2)c2ccc(O)c(C(=O)O)c2)C=CC1=O` [ATA, Aurintricarboxylic acid], the “Protection of cells from apoptosis” value in the data set with cells is “protect cells from apoptosis”.
`Cc1cc(-c2ccc(N=Nc3ccc4c(S(=O)(=O)O)cc(S(=O)(=O)O)c(N)c4c3O)c(C)c2)ccc1N=Nc1ccc2c(S(=O)(=O)O)cc(S(=O)(=O)O)c(N)c2c1O` [EB, Evan's Blue]: in the data set with IRS-2, the “IRS-2 tyrosine phosphorylation and association with the 85-kDa regulatory subunit of PI-kinase” value is on record as “enhanced”. The “Tyrosine phosphorylation of IR, IRS-1 and 85-kDa subunit of PI3-kinase in liver” value in data set [1] is “phosphorylated tyrosines of IR, IRS-1 and the 85-kDa of the regulatory subunit of PI3-kinase”. In addition, the “Activation of MAPKs 1 and 2” value in the data set with MAPKs 1 and 2 is “activated”. Besides, in data set [2], the Toxicity to humans entry is “non-toxic to humans at high doses”.
